Assay results: patent US10053468B2, “Heterocyclic compound” (TAKEDA PHARMACEUTICAL COMPANY LIMITED, priority 2013, dated 2018)

What was measured:
RORγt [1] = molecular target: T1, RORγt (Homo sapiens, UniProt P51449); test: Cofactor recruitment test (Alpha Screen, biotinylated SRC-1 peptide); format: biochemical; settings: read-out: Signal value inhibitory rate at test compound 1 μM (%)
T1 sequence (P51449 1-497 isoform P51449-2): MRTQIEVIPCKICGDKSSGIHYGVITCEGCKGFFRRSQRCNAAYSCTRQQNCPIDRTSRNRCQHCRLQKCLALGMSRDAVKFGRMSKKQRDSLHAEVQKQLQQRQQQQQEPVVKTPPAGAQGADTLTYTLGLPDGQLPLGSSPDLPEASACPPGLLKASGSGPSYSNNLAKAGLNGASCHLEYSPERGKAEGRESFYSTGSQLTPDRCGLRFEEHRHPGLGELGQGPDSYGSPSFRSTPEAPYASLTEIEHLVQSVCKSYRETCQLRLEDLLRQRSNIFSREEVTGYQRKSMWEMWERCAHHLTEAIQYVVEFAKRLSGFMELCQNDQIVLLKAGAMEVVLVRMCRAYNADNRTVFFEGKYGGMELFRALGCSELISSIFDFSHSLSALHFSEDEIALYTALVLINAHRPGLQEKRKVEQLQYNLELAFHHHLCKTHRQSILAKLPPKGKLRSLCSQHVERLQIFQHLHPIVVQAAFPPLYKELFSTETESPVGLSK
Method: Cofactor Recruitment Test
Cofactor recruitment test was performed by Alpha Screen (Histidine Detection Kit, PerkinElmer) method. First, a test compound was diluted with an assay buffer (50 mM Tris-HCl (pH 7.5), 50 mM KCl, 1 mM DTT, 0.1% BSA) and added to a 384 well plate by 5 μL. […] The mixture was stood in a dark place for 1 hr, and the signal value was measured by Envision (PerkinElmer).

RORγt [2] = molecular target: T1, RORγt; test: RORγt binding test using fluorescent-labeled synthetic ligand (TR-FRET); settings: read-out: Binding inhibitory rate of fluorescent-labeled synthetic ligand to RORγt at test compound 1 μM (%)
Outline: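 His-tagged RORγt (diluted to 240 nM) with compound, then fluorescent synthetic ligand (diluted to 12 μM), 20 min at room temperature, followed by Tb anti-His antibody (diluted to 8 nM), 20 min.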

RORγt [3] = molecular target: T1, RORγt; test: Jurkat reporter test (human IL-17 ROR response element luciferase, RORγt vector); format: cell-based; settings: test compound 3 μM, Jurkat cells; read-out: Luminescence level inhibitory rate at test compound 3 μM (%)
Outline: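 Jurkat cells were electroporated (1350 V, 10 ms, 3 pulses) with reporter constructs, then cultured overnight with compound in RPMI containing 10% lipid-reduced FCS, 10 mM HEPES pH 7.5 and 5 μM lovastatin. Luciferase was quantified by Bright-Glo luminescence after 10 min at room temperature.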

RORγt [4] = molecular target: T1, RORγt; test: RORγt binding test using fluorescent-labeled cholesterol (TR-FRET); settings: read-out: Binding inhibitory rate of fluorescent-labeled cholesterol to RORγt at test compound 1 μM (%)
Outline: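 TR-FRET displacement with His-tagged RORγt, BODIPY-cholesterol and Tb-anti-His antibody in Tris-HCl pH 7.5, 100 mM NaCl, 1 mM DTT, 0.1% BSA. Compound, RORγt and labelled cholesterol were incubated 20 min at RT, then antibody was added for another 20 min.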

Row | inhibition at 1 µM (RORγt [1]) | inhibition at 1 µM (RORγt [2]) | inhibition at 3 µM (RORγt [3]) | inhibition at 1 µM (RORγt [4]) | Compound
1 | 84% | 102% | 97% | 100% | CCOc1ccc2c(c1)CCN(C(=O)CCCC(=O)O)[C@H]2C(=O)Nc1cc(F)c(C(C)(C)COCC(F)F)c(F)c1 [Example 153, 5-((1R)-1-((4-(1-(2,2-difluoroethoxy)-2-methylpropan-2-yl)-3,5-difluorophenyl)carbamoyl)-6-ethoxy-3,4-dihydroisoquinolin-2 (1H)-yl)-5-oxopentanoic acid]
2 | 85% | 102% | 98% | 101% | CCOc1ccc2c(c1)CCN(C(=O)c1cc(O)no1)[C@H]2C(=O)Nc1cc(F)c(C(C)(C)COCC(F)F)c(F)c1 [Example 154, (1R)-N-(4-(1-(2,2-difluoroethoxy)-2-methylpropan-2-yl)-3,5-difluorophenyl)-6-ethoxy-2-((3-hydroxy-1,2-oxazol-5-yl)carbonyl)-1,2,3,4-tetrahydroisoquinoline-1-carboxamide]
3 | 84% | 101% | 99% | 101% | CCOc1ccc2c(c1)CCN(C(=O)Cc1cc(O)no1)[C@H]2C(=O)Nc1cc(F)c(C(C)(C)COCC(F)F)c(F)c1 [Example 155, (1R)-N-(4-(1-(2,2-difluoroethoxy)-2-methylpropan-2-yl)-3,5-difluorophenyl)-6-ethoxy-2-((3-hydroxy-1,2-oxazol-5-yl)acetyl)-1,2,3,4-tetrahydroisoquinoline-1-carboxamide]
4 | 74% | 102% | 94% | 99% | COc1ccc2c(c1)CCN(C(=O)Cc1cc(O)no1)[C@H]2C(=O)Nc1cc(F)c(C(C)(C)COCC2CC2)c(F)c1 [Example 157, (1R)-N-(4-(1-(cyclopropylmethoxy)-2-methylpropan-2-yl)-3,5-difluorophenyl)-2-((3-hydroxy-1,2-oxazol-5-yl)acetyl)-6-methoxy-1,2,3,4-tetrahydroisoquinoline-1-carboxamide]
5 | 80% | 101% | 97% | 100% | COc1ccc2c(c1)CCN(C(=O)Cc1cc(O)no1)[C@H]2C(=O)Nc1cc(F)c(C(C)(C)COCC(F)F)c(F)c1 [Example 159, (1R)-N-(4-(1-(2,2-difluoroethoxy)-2-methylpropan-2-yl)-3,5-difluorophenyl)-2-((3-hydroxy-1,2-oxazol-5-yl)acetyl)-6-methoxy-1,2,3,4-tetrahydroisoquinoline-1-carboxamide]
6 | 97% | 102% | 101% | 100% | CCOc1ccc2c(c1)CCN(C(=O)c1cc(O)no1)[C@H]2C(=O)Nc1cc(F)c(C(C)(C)COC)c(F)c1 [Example 163, (1R)-N-(3,5-difluoro-4-(1-methoxy-2-methylpropan-2-yl)phenyl)-6-ethoxy-2-((3-hydroxy-1,2-oxazol-5-yl)carbonyl)-1,2,3,4-tetrahydroisoquinoline-1-carboxamide]
7 | 86% | 102% | 99% | 100% | CCOCC(C)(C)c1c(F)cc(NC(=O)[C@H]2c3ccc(OCC)cc3CCN2C(=O)CCCC(=O)O)cc1F [Example 166, 5-((1R)-6-ethoxy-1-((4-(1-ethoxy-2-methylpropan-2-yl)-3,5-difluorophenyl)carbamoyl)-3,4-dihydroisoquinolin-2(1H)-yl)-5-oxopentanoic acid]
8 | 85% | 102% | 97% | 101% | CCOCC(C)(C)c1c(F)cc(NC(=O)[C@H]2c3ccc(OCC)cc3CCN2C(=O)c2cc(O)no2)cc1F [Example 167, (1R)-6-ethoxy-N-(4-(1-ethoxy-2-methylpropan-2-yl)-3,5-difluorophenyl)-2-((3-hydroxy-1,2-oxazol-5-yl)carbonyl)-1,2,3,4-tetrahydroisoquinoline-1-carboxamide]
9 | 93% | 102% | 102% | 102% | COCc1ccc2c(c1)CCN(C(=O)Cc1cc(O)no1)[C@H]2C(=O)Nc1cc(F)c2c(c1)CCC2(C)C [Example 169, (1R)-N-(7-fluoro-1,1-dimethyl-2,3-dihydro-1H-inden-5-yl)-2-((3-hydroxy-1,2-oxazol-5-yl)acetyl)-6-(methoxymethyl)-1,2,3,4-tetrahydroisoquinoline-1-carboxamide]
10 | 81% | 102% | 97% | 102% | CCOCC(C)(C)c1c(F)cc(NC(=O)[C@H]2c3ccc(OC)cc3CCN2C(=O)Cc2cc(O)no2)cc1F [Example 170, (1R)-N-(4-(1-ethoxy-2-methylpropan-2-yl)-3,5-difluorophenyl)-2-((3-hydroxy-1,2-oxazol-5-yl)acetyl)-6-methoxy-1,2,3,4-tetrahydroisoquinoline-1-carboxamide]
11 | 82% | 101% | 96% | 100% | CCOCC(C)(C)c1c(F)cc(NC(=O)[C@H]2c3ccc(OC)cc3CCN2C(=O)c2cc(O)no2)cc1F [Example 171, (1R)-N-(4-(1-ethoxy-2-methylpropan-2-yl)-3,5-difluorophenyl)-2-((3-hydroxy-1,2-oxazol-5-yl)carbonyl)-6-methoxy-1,2,3,4-tetrahydroisoquinoline-1-carboxamide]
12 | 82% | 101% | 97% | 101% | CCOCC(C)(C)c1c(F)cc(NC(=O)[C@H]2c3ccc(OC)cc3CCN2C(=O)CCCC(=O)O)cc1F [Example 172, 5-((1R)-1-((4-(1-ethoxy-2-methylpropan-2-yl)-3,5-difluorophenyl)carbamoyl)-6-methoxy-3,4-dihydroisoquinolin-2(1H)-yl)-5-oxopentanoic acid]
